One assay is filed under the species Rattus norvegicus. As to the kind of experiment: Inhibition of rat intestinal alpha-trehalase assessed as release of p-nitrophenol at 1000 uM using p-nitrophenyl glycoside as substrate by spectrometric assay relative to control.
The species entered for assay [1] is Bos taurus. The assay is described as follows: Inhibition of bovine liver beta-galactosidase assessed as release of p-nitrophenol at 1000 uM using p-nitrophenyl glycoside as substrate by spectrometric assay relative to control.
Assay [2] concerns the target T1, Tissue alpha-L-fucosidase (Bos taurus) (UniProt Q2KIM0).
T1 sequence (whole entry): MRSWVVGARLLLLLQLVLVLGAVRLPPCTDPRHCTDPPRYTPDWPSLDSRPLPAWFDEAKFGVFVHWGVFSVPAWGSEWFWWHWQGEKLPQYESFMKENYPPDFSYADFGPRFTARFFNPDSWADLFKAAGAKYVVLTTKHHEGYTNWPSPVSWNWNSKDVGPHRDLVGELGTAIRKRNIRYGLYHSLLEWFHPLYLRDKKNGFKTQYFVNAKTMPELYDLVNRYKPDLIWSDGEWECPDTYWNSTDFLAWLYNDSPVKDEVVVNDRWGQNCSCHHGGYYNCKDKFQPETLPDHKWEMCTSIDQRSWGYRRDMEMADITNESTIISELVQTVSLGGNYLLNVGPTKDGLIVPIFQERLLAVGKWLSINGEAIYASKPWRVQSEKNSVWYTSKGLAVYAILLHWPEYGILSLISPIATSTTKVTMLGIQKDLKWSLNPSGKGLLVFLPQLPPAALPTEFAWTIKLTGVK
The assay is described as follows: Inhibition of bovine kidney alpha-L-fucosidase assessed as release of p-nitrophenol at 1000 uM using p-nitrophenyl glycoside as substrate by spectrometric assay relative to control.

Assay [3] addresses Sucrase-isomaltase, intestinal (Rattus norvegicus, UniProt P23739). As to the kind of experiment: Inhibition of rat intestinal sucrase assessed as release of p-nitrophenol using p-nitrophenyl glycoside as substrate by spectrometric assay.
The test system of another assay is Helix pomatia. The assay is described as follows: Inhibition of snail beta-mannosidase assessed as release of p-nitrophenol at 1000 uM using p-nitrophenyl glycoside as substrate by spectrometric assay relative control.
The species named for assay [4] is Bos taurus. The assay is described as follows: Inhibition of bovine liver beta-glucronidase assessed as release of p-nitrophenol at 1000 uM using p-nitrophenyl glycoside as substrate by spectrometric assay relative to control.
The test system of another assay is Prunus dulcis. As to the kind of experiment: Inhibition of almond beta-glucosidase assessed as release of p-nitrophenol at 1000 uM using p-nitrophenyl glycoside as substrate by spectrometric assay relative to control.
For a further assay, the species on record is Sus scrofa. As to the kind of experiment: Inhibition of porcine kidney alpha-trehalase assessed as release of p-nitrophenol at 1000 uM using p-nitrophenyl glycoside as substrate by spectrometric assay relative to control.
A further assay deals with Oryza sativa. The assay is described as follows: Inhibition of rice alpha-glucosidase assessed as release of p-nitrophenol at 1000 uM using p-nitrophenyl glycoside as substrate by spectrometric assay relative to control.
Another assay concerns Escherichia coli. The assay is described as follows: Inhibition of Escherichia coli beta-glucuronidase assessed as release of p-nitrophenol at 1000 uM using p-nitrophenyl glycoside as substrate by spectrometric assay relative to control.
Assay [5] in a line: Inhibition of yeast alpha-glucosidase assessed as release of p-nitrophenol using p-nitrophenyl glycoside as substrate by spectrometric assay. Also on record: species or system Saccharomyces cerevisiae.
For assay [6], the target named is T2, Lysosomal alpha-glucosidase (Homo sapiens, UniProt P10253). The assay is described as follows: Inhibition of human lysosomal alpha glucosidase assessed as release of p-nitrophenol at 1000 uM using p-nitrophenyl glycoside as substrate by spectrometric assay relative to control.
The next assay deals with Aspergillus niger. The assay is described as follows: Inhibition of Aspergillus niger amyloglucosidase assessed as release of p-nitrophenol at 1000 uM using p-nitrophenyl glycoside as substrate by spectrometric assay relative to control.
Assay [7] is filed under the species Bos taurus. The assay is described as follows: Inhibition of bovine liver beta-glucosidase assessed as release of p-nitrophenol at 1000 uM using p-nitrophenyl glycoside as substrate by spectrometric assay relative to control.
Assay [8] addresses T3, Alpha-mannosidase (Canavalia ensiformis) (UniProt C0HJB3).
T3 sequence (whole entry): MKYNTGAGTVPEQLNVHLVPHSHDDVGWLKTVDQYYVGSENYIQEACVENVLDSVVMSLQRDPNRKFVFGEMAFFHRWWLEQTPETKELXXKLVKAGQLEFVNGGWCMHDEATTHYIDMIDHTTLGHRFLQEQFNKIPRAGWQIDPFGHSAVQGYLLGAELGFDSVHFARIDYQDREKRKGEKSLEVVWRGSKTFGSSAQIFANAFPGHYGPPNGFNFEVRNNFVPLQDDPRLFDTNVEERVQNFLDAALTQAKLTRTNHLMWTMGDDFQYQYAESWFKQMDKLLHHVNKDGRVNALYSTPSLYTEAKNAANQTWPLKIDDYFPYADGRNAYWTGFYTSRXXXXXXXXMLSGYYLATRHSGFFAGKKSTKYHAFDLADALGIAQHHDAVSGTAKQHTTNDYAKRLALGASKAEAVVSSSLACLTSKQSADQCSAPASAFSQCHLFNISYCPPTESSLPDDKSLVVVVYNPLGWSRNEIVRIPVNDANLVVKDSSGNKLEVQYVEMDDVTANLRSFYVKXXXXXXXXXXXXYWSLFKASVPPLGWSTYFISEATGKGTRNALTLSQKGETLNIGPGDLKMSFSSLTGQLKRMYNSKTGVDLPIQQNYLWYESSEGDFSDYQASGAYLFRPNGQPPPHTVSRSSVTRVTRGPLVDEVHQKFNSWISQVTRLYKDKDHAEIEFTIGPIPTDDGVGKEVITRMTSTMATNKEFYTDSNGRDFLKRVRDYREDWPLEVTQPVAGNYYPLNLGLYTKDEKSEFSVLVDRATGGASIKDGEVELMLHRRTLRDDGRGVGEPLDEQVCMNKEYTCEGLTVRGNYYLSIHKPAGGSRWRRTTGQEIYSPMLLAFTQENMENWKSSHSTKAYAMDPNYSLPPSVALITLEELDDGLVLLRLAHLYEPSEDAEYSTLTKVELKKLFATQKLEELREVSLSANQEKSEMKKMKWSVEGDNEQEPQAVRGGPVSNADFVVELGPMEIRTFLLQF
As to the kind of experiment: Inhibition of jack bean alpha-mannosidase assessed as release of p-nitrophenol at 1000 uM using p-nitrophenyl glycoside as substrate by spectrometric assay relative to control.

The subject of the next assay is Penicillium decumbens. As to the kind of experiment: Inhibition of Penicillium decumbens alpha-L-rhamnosidase assessed as release of p-nitrophenol at 1000 uM using p-nitrophenyl glycoside as substrate by spectrometric assay relative to control.
The target in assay [9] is Alpha-galactosidase (Coffea arabica) (UniProt Q42656). The assay is described as follows: Inhibition of coffee beans alpha-galactosidase assessed as release of p-nitrophenol at 1000 uM using p-nitrophenyl glycoside as substrate by spectrometric assay relative to control.
Assay [10] has as its target T2, Lysosomal alpha-glucosidase. As to the kind of experiment: Inhibition of human lysosomal alpha glucosidase assessed as release of p-nitrophenol using p-nitrophenyl glycoside as substrate by spectrometric assay.
A short description of assay [11]: Inhibition of rice alpha-glucosidase assessed as release of p-nitrophenol using p-nitrophenyl glycoside as substrate by spectrometric assay. Also on record: species or system Oryza sativa.

Chain of Sucrase-isomaltase, intestinal (P23739 1-1013 limits assumed): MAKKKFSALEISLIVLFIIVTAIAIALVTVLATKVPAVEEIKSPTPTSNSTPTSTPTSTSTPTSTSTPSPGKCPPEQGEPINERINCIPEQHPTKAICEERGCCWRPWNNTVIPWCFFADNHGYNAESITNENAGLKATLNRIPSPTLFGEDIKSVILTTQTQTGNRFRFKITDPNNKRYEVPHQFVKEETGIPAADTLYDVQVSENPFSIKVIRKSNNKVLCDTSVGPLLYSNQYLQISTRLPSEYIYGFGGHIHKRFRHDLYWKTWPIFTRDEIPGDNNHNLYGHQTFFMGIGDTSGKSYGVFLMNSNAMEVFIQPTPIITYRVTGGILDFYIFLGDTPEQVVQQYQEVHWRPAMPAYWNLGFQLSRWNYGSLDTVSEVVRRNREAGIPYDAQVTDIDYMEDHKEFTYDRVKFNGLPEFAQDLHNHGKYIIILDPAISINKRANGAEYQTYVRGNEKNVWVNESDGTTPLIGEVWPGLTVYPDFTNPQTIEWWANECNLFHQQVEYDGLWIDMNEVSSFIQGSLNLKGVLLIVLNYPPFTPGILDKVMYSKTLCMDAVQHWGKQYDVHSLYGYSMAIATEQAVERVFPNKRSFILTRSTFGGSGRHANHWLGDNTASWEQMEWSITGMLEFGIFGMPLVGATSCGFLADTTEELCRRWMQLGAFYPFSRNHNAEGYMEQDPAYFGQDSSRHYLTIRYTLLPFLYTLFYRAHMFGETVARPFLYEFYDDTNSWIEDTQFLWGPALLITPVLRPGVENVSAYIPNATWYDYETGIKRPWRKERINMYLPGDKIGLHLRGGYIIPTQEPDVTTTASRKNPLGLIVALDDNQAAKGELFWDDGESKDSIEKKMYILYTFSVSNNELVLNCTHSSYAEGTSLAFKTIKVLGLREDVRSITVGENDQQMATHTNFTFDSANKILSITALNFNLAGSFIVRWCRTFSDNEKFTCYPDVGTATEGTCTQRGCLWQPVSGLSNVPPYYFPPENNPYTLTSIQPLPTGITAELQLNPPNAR
Chain of Sucrase-isomaltase, intestinal (P23739 1014-1841 limits assumed): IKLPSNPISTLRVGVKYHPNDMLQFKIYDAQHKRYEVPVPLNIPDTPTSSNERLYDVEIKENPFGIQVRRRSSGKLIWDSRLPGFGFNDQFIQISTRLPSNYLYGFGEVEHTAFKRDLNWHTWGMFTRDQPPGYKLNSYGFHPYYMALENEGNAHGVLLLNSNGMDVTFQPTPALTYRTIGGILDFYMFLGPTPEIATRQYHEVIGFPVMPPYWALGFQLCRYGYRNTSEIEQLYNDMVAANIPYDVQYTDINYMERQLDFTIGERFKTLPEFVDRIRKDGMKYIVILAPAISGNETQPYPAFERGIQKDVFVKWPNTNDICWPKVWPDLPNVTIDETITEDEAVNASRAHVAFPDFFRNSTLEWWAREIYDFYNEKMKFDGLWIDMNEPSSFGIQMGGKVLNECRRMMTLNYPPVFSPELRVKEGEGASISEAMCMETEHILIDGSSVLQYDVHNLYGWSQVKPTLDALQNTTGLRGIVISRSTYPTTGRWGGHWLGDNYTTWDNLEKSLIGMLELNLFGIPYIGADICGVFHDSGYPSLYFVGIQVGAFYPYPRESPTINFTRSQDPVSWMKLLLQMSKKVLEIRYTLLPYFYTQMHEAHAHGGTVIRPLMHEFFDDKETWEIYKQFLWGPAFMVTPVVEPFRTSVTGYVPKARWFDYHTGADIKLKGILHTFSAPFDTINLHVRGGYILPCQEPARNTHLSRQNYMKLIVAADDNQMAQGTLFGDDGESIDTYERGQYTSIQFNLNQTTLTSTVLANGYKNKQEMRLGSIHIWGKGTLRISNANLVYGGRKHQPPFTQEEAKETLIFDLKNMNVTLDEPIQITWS
Chain of Alpha-galactosidase (Coffea arabica) (Q42656 16-378 limits assumed): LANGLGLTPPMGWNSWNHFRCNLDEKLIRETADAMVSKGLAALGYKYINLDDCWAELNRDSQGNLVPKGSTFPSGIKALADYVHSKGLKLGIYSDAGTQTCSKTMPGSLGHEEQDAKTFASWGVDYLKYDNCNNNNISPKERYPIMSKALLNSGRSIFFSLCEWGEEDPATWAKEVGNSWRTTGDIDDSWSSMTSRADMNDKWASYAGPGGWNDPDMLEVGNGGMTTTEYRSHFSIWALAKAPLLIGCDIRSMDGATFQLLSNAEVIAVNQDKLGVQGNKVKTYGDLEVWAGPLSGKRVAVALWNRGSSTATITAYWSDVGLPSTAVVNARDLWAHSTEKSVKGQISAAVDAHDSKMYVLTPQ

For the compound `OC[C@]1(c2c(F)c(F)c(F)c(F)c2F)NC[C@H](O)[C@H]1O`, the inhibition – broadly, how much of the control response was suppressed – in the assay listed under Rattus norvegicus stood at 40.2%; in the assay filed under Bos taurus [1], 3.7%; in assay [2] it was 0%; in the assay on Helix pomatia, 0%; in the assay listed under Bos taurus [4] it was 3.6%; in the assay with Prunus dulcis, 4.6%. Besides, the inhibition in the assay listed under Sus scrofa was determined as 2%; in the assay on Oryza sativa, 0%; in the assay on Escherichia coli it was 2.6%; in assay [6], 6.9%; with Aspergillus niger, 4.4%; in the assay filed under Bos taurus [7], 3.8%. Also, the inhibition in assay [8] was 6.6%; in the assay with Penicillium decumbens it was 2%. For the same compound, the results for the IC50 in assay [3] and in assay [5] were 4.1 µM and 528 µM, respectively.
On to `COc1cccc([C@@]2(CO)NC[C@H](O)[C@H]2O)c1`, for which the inhibition was found to be 0.6% in the assay listed under Rattus norvegicus; 26.5% in the assay listed under Bos taurus [1]; 1.6% in [2]; 0% with Helix pomatia; 8.2% in the assay listed under Bos taurus [4]; 1.7% in the assay on Prunus dulcis. In addition, the inhibition in the assay listed under Sus scrofa stood at 3.8%; in assay [9] it was 1.6%; in the assay on Oryza sativa, 47.3%; in the assay with Escherichia coli, 0%; in assay [6], 46%; with Aspergillus niger, 5%. Besides, the inhibition in the assay listed under Bos taurus [7] was found to be 12.8%; in assay [8], 0%; with Penicillium decumbens, 5.5%. For the same compound, the IC50 – broadly, the point on the concentration scale where inhibition reaches its midpoint – in assay [3] was found to be 2.2 µM; in assay [5] it was 19 µM.
For `OC[C@@]1(c2c(F)c(F)c(F)c(F)c2F)NC[C@@H](O)[C@@H]1O`, the inhibition in the assay listed under Rattus norvegicus was determined as 14.1%; in the assay listed under Bos taurus [1] it was 38.1%; in assay [2] it was 3.8%; with Helix pomatia, 0%; in the assay filed under Bos taurus [4], 18.4%; with Prunus dulcis it was 5.2%. Further, the inhibition in the assay filed under Sus scrofa came out at 0%; in assay [9], 0%; with Oryza sativa, 19.5%; in the assay on Escherichia coli, 0%; in assay [6], 18.5%; in the assay with Aspergillus niger it was 7.8%. For the same compound, the figures for the inhibition (in the assay filed under Bos taurus [7]; in assay [8]; with Penicillium decumbens) were 33%, 0% and 0%, respectively. The IC50 stood at 2.5 µM in assay [3] and 388 µM in assay [5].
For the compound `OC[C@]1(c2cccc(F)c2)NC[C@H](O)[C@H]1O`, the inhibition in the assay filed under Rattus norvegicus was found to be 10%; in the assay filed under Bos taurus [1] it was 16.4%; in [2], 0%; with Helix pomatia, 0%; in the assay listed under Bos taurus [4], 19.4%; with Prunus dulcis, 0%. For the same compound, the inhibition in the assay listed under Sus scrofa was 8.3%; with Escherichia coli it was 0%; in the assay on Aspergillus niger, 1.4%; in the assay filed under Bos taurus [7] it was 11.3%; in assay [8] it was 0%; in the assay on Penicillium decumbens, 0%. In addition, the IC50 in assay [3] turned out to be 0.95 µM; in [10], 491 µM; in assay [5], 60 µM; in assay [11], 817 µM.
`COc1ccc([C@]2(CO)NC[C@@H](O)[C@@H]2O)cc1OC`: the inhibition in the assay filed under Rattus norvegicus came to 0%; in the assay filed under Bos taurus [1] it was 24.3%; in assay [2], 0%; with Helix pomatia it was 0%; in the assay filed under Bos taurus [4] it was 17.5%; with Prunus dulcis it was 0%. The inhibition stood at 0.8% in the assay filed under Sus scrofa; 0% in [9]; 11.4% in the assay with Oryza sativa; 0% in the assay on Escherichia coli; 11.1% in assay [6]; 0.5% in the assay on Aspergillus niger. The figures for the inhibition (in the assay filed under Bos taurus [7]; in assay [8]; with Penicillium decumbens) were 22.2%, 0% and 0%, respectively. The IC50 in assay [3] came to 4.1 µM; in assay [5] it was 243 µM.
In the case of `COc1ccc([C@@]2(CO)NC[C@H](O)[C@H]2O)cc1OC`, the inhibition came out at 0% in the assay listed under Rattus norvegicus; 19% in the assay filed under Bos taurus [1]; 0.5% in assay [2]; 0% in the assay with Helix pomatia; 23.3% in the assay filed under Bos taurus [4]; 0% with Prunus dulcis. Also, the inhibition stood at 0% in the assay listed under Sus scrofa; 0% in assay [9]; 32.3% in the assay on Oryza sativa; 0% in the assay with Escherichia coli; 27.1% in [6]; 6.4% in the assay on Aspergillus niger. Besides, the inhibition is 15.8% in the assay filed under Bos taurus [7], 0% in assay [8] and 0% in the assay on Penicillium decumbens. Also, the values for the IC50 in assay [3] and in assay [5] were 2.5 µM and 64 µM, respectively.
Take `OC[C@]1(c2ccc(F)cc2)NC[C@H](O)[C@H]1O`: the inhibition was found to be 27% in the assay listed under Rattus norvegicus; 0% in the assay filed under Bos taurus [1]; 0% in assay [2]; 0% in the assay with Helix pomatia; 10.9% in the assay listed under Bos taurus [4]; 4.6% in the assay with Prunus dulcis. The inhibition was 4% in the assay listed under Sus scrofa; 0% in assay [9]; 6.4% in the assay with Oryza sativa; 3% with Escherichia coli; 8.3% in assay [6]; 0% with Aspergillus niger. Also, the inhibition in the assay filed under Bos taurus [7] turned out to be 0.4%; in assay [8], 6.6%; in the assay on Penicillium decumbens, 0%. Moreover, the IC50 in [3] was 2.8 µM; in [5] it was 305 µM.
For `Cc1ccc([C@]2(CO)NC[C@@H](O)[C@@H]2O)cc1`, the inhibition worked out at 12.9% in the assay listed under Rattus norvegicus; 35% in the assay filed under Bos taurus [1]; 0% in assay [2]; 0% in the assay on Helix pomatia; 8.7% in the assay listed under Bos taurus [4]; 8.7% in the assay on Prunus dulcis. The inhibition in the assay listed under Sus scrofa stood at 0%; in assay [9], 1.6%; in the assay with Oryza sativa, 29.1%; in the assay on Escherichia coli, 0%; in assay [6], 21.3%; in the assay on Aspergillus niger, 8.3%. Also, the inhibition was 29.1% in the assay filed under Bos taurus [7], 0% in assay [8] and 7.4% in the assay on Penicillium decumbens. Also, the results for the IC50 in assay [3] and in [5] were 3.4 µM and 212 µM, respectively.

(Values after ChEMBL document CHEMBL5131499, “Design, synthesis and glycosidase inhibition of C-4 branched LAB and DAB derivatives” (Eur J Med Chem, 2022).)
